# Reference: patent US20250215030A1, “STAT MODULATORS AND USES THEREOF” (Recludix Pharma, Inc., priority 2022, published 2025)
# pIC50: −log10 of the molar value.
# Experiments:
# [1] = target: T1, Recombinant STAT6 protein (STAT6(W123-T658)) (Homo sapiens, UniProt P42226); assay: STAT6 Fluorescence Polarization (FP) Assay; type: binding; settings: STAT6(W123-T658) 250 nM, probe 5-FAM-ApYKPFQDLI-NH2 2 nM, 45-minute incubation
# T1 construct: STAT6(W123-T658)
# T1 sequence (P42226 123-658): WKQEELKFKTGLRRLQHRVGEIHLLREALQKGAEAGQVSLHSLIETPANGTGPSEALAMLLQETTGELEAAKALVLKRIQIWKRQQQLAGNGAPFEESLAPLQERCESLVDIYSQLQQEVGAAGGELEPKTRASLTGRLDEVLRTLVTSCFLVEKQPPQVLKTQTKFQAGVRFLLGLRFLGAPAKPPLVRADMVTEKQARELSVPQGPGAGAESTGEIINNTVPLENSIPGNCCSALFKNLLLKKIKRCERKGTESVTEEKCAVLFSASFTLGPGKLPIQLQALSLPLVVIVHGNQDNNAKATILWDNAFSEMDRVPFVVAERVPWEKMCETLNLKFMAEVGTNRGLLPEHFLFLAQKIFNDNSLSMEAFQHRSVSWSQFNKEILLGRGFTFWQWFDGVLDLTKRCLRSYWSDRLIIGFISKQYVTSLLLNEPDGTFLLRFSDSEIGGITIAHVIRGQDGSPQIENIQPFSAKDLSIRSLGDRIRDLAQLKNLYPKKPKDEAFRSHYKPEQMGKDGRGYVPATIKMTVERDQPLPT
# Outline: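 Competitive displacement of a fluorescent phosphotyrosine peptide (2 nM) from recombinant STAT6 W123-T658 (250 nM), 45 min at room temperature in 10 mM HEPES pH 7.4, 50 mM NaCl, 2 mM DTT. mP fitted against log compound for IC50, grouped A (≤300 nM) to D (>30 μM).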
# [2] = target: T2, Recombinant STAT3 protein (STAT3(G127-I722)) (Homo sapiens, UniProt P40763); assay: STAT3 Fluorescence Polarization (FP) Assay; type: binding; settings: STAT3(G127-I722) 25 nM, probe 5-FAM-GpYLPQTV-NH2 2 nM, 45-minute incubation
# T2 construct: STAT3(G127-I722)
# T2 sequence (P40763 127-722, species assumed): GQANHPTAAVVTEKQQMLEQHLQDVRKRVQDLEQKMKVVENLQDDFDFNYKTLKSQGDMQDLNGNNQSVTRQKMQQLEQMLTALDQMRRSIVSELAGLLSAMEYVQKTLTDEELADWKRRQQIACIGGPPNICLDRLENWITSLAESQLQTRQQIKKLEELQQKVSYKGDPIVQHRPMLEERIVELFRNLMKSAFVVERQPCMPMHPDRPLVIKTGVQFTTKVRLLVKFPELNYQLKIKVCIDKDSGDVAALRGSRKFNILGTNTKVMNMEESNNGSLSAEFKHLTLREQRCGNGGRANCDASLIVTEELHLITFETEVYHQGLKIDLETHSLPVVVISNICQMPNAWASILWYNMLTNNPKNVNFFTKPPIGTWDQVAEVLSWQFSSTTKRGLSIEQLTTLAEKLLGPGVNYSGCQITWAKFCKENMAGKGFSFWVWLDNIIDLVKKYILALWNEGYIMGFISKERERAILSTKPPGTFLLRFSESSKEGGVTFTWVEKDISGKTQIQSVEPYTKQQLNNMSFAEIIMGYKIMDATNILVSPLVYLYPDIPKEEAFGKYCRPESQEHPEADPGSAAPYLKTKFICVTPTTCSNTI
# Outline: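 Serially diluted compounds (1% DMSO) were mixed with 2 nM fluorescent phosphotyrosine peptide and 25 nM STAT3 construct G127-I722, pH 7.4, incubated 45 min at room temperature. IC50 values from fitted polarization curves are reported as categories A (≤100 nM), B, C, D (>10 μM).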
Structure (SMILES),pIC50 [1],pIC50 [2]
"O=C(N[C@H]1C[C@@H]2C[C@@H]2C[C@H]2CC[C@@H](C(=O)N3CC(c4cnccc4F)C3)N2C1=O)c1cc2cc(CP(=O)(O)O)ccc2s1 [Example 247, ((2-(((3S,6S,7aS,8aR,9aR)-3-(3-(4-fluoropyridin-3-yl)azetidine-1-carbonyl)-5-oxodecahydro-1H-cyclopropa[d]pyrrolo[1,2-a]azocin-6-yl)carbamoyl)benzo[b]thiophen-5-yl)methyl)phosphonic acid]",< 4.52,> 7.00
"O=C(N[C@H]1C[C@@H]2C[C@@H]2C[C@H]2CC[C@@H](C(=O)N[C@H]3CN(c4cncnc4)C[C@@H]3F)N2C1=O)c1cc2cc(CP(=O)(O)O)ccc2s1 [Example 279, ((2-(((3S,6S,7aS,8aR,9aR)-3-(((3S,4S)-4-fluoro-1-(pyrimidin-5-yl)pyrrolidin-3-yl)carbamoyl)-5-oxodecahydro-1H-cyclopropa[d]pyrrolo[1,2-a]azocin-6-yl)carbamoyl)benzo[b]thiophen-5-yl)methyl)phosphonic acid]",< 4.52,< 5.00
"O=C(N[C@H]1C[C@@H]2C[C@@H]2C[C@H]2CC[C@@H](C(=O)N[C@@H]3CCN(c4cn[nH]c4)C3)N2C1=O)c1cc2cc(C(F)(F)P(=O)(O)O)ccc2s1 [Compound 120, ((2-(((3S,6S,7aS,8aR,9aR)-3-(((R)-1-(1H-pyrazol-4-yl)pyrrolidin-3-yl)carbamoyl)-5-oxodecahydro-1H-cyclopropa[d]pyrrolo[1,2-a]azocin-6-yl)carbamoyl)benzo[b]thiophen-5-yl)difluoromethyl)phosphonic acid]",5.52 to 6.52,6.00 to 7.00
"Cc1ccncc1N1C[C@H](NC(=O)[C@@H]2CC[C@@H]3C[C@H]4C[C@H]4C[C@H](NC(=O)c4cc5cc(CP(=O)(O)O)ccc5s4)C(=O)N32)[C@@H](F)C1 [Example 278, ((2-(((3S,6S,7aS,8aR,9aR)-3-(((3S,4S)-4-fluoro-1-(4-methylpyridin-3-yl)pyrrolidin-3-yl)carbamoyl)-5-oxodecahydro-1H-cyclopropa[d]pyrrolo[1,2-a]azocin-6-yl)carbamoyl)benzo[b]thiophen-5-yl)methyl)phosphonic acid]",< 4.52,6.00 to 7.00
"C[C@@]12C[C@H](NC(=O)c3cc4cc(C(F)(F)P(=O)(O)O)ccc4s3)C(=O)N3[C@H](CC[C@H]3C(=O)N3CC(c4cccnc4)C3)[C@@H]1C2 [Compound 38, (difluoro(2-(((3S,6S,7aR,8aS,9aR)-7a-methyl-5-oxo-3-(3-(pyridin-3-yl)azetidine-1-carbonyl)decahydro-1H-cyclopropa[d]pyrrolo[1,2-a]azocin-6-yl)carbamoyl)benzo[b]thiophen-5-yl)methyl)phosphonic acid]",4.52 to 5.52,6.00 to 7.00
"N#C[C@@H]1CN(C(=O)[C@@H]2CC[C@@H]3C[C@H]4C[C@H]4C[C@H](NC(=O)c4cc5cc(C(F)(F)P(=O)(O)O)ccc5s4)C(=O)N32)C[C@]12C(=O)Nc1ccccc12 (single isomer, unassigned) [Compound 28]",≥ 6.52,> 7.00
"N#CC1(c2ccccn2)CN(C(=O)[C@@H]2CC[C@@H]3C[C@H]4C[C@H]4C[C@H](NC(=O)c4cc5cc(C(F)(F)P(=O)(O)O)ccc5s4)C(=O)N32)C1 [Compound 89, ((2-(((3S,6S,7aS,8aR,9aR)-3-(3-cyano-3-(pyridin-2-yl)azetidine-1-carbonyl)-5-oxodecahydro-1H-cyclopropa[d]pyrrolo[1,2-a]azocin-6-yl)carbamoyl)benzo[b]thiophen-5-yl)difluoromethyl)phosphonic acid]",5.52 to 6.52,> 7.00
"Cn1ccnc1N1C[C@H](NC(=O)[C@@H]2CC[C@@H]3C[C@H]4C[C@H]4C[C@H](NC(=O)c4cc5cc(C(F)P(=O)(O)O)ccc5s4)C(=O)N32)[C@@H](F)C1 (stereo partly drawn) [Example 367, (fluoro(2-(((3S,6S,7aS,8aR,9aR)-3-(((3S,4S)-4-fluoro-1-(1-methyl-1H-imidazol-2-yl)pyrrolidin-3-yl)carbamoyl)-5-oxodecahydro-1H-cyclopropa[d]pyrrolo[1,2-a]azocin-6-yl)carbamoyl)benzo[b]thiophen-5-yl)methyl)phosphonic acid]",4.52 to 5.52,> 7.00
"Cc1ccncc1C1CN(C(=O)[C@@H]2CC[C@@H]3C[C@@H]4C[C@@H]4C[C@H](NC(=O)c4cc5cc(C(F)(F)P(=O)(O)O)ccc5s4)C(=O)N32)C1 [Compound 56, (difluoro(2-(((3S,6S,7aR,8aS,9aR)-3-(3-(4-methylpyridin-3-yl)azetidine-1-carbonyl)-5-oxodecahydro-1H-cyclopropa[d]pyrrolo[1,2-a]azocin-6-yl)carbamoyl)benzo[b]thiophen-5-yl)methyl)phosphonic acid]",5.52 to 6.52,> 7.00
"N#C[C@H]1CN(C(=O)[C@@H]2CC[C@@H]3C[C@H]4C[C@H]4C[C@H](NC(=O)c4cc5cc(C(F)(F)P(=O)(O)O)ccc5s4)C(=O)N32)C[C@@]12C(=O)Nc1ccccc12 (single isomer, unassigned) [Compound 27]",5.52 to 6.52,6.00 to 7.00
"O=C(N[C@H]1C[C@@H]2C[C@@H]2C[C@H]2CC[C@@H](C(=O)Nc3ccc(-c4ccccc4)cc3)N2C1=O)c1cc2cc(C(F)(F)P(=O)(O)O)ccc2s1 [Compound 32, ((2-(((3S,6S,7aS,8aR,9aR)-3-([1,1′-biphenyl]-4-ylcarbamoyl)-5-oxodecahydro-1H-cyclopropa[d]pyrrolo[1,2-a]azocin-6-yl)carbamoyl)benzo[b]thiophen-5-yl)difluoromethyl)phosphonic acid]",5.52 to 6.52,> 7.00
"Cc1nnc(C2(C)CN(C(=O)[C@@H]3CC[C@@H]4C[C@@H]5C[C@@H]5C[C@H](NC(=O)c5cc6cc(C(F)(F)P(=O)(O)O)ccc6s5)C(=O)N43)C2)o1 [Compound 82, (difluoro(2-(((3S,6S,7aR,8aS,9aR)-3-(3-methyl-3-(5-methyl-1,3,4-oxadiazol-2-yl)azetidine-1-carbonyl)-5-oxodecahydro-1H-cyclopropa[d]pyrrolo[1,2-a]azocin-6-yl)carbamoyl)benzo[b]thiophen-5-yl)methyl)phosphonic acid]",5.52 to 6.52,> 7.00
"O=C(N[C@H]1C[C@@H]2C[C@@H]2C[C@H]2CC[C@@H](C(=O)N3CCN(c4ccccn4)CC3)N2C1=O)c1cc2cc(C(F)(F)P(=O)(O)O)ccc2s1 [Compound 113, (difluoro(2-(((3S,6S,7aS,8aR,9aR)-5-ox0-3-(4-(pyridin-2-yl)piperazine-1-carbonyl)decahydro-1H-cyclopropa[d]pyrrolo[1,2-a]azocin-6-yl)carbamoyl)benzo[b]thiophen-5-yl)methyl)phosphonic acid]",4.52 to 5.52,6.00 to 7.00
"O=C(N[C@H]1C[C@@H]2C[C@@H]2C[C@H]2CC[C@@H](C(=O)N3CC(c4cccnc4)C3)N2C1=O)c1cc2cc(C(F)(F)P(=O)(O)O)ccc2s1 [Compound 100, (difluoro(2-(((3S,6S,7aS,8aR,9aR)-5-ox0-3-(3-(pyridin-3-yl)azetidine-1-carbonyl)decahydro-1H-cyclopropa[d]pyrrolo[1,2-a]azocin-6-yl)carbamoyl)benzo[b]thiophen-5-yl)methyl)phosphonic acid]",4.52 to 5.52,> 7.00
"Cc1cccc(C2CN(C(=O)[C@@H]3CC[C@@H]4C[C@@H]5C[C@@H]5C[C@H](NC(=O)c5cc6cc([C@@H](F)P(=O)(O)O)ccc6s5)C(=O)N43)C2)n1 (single isomer, unassigned) [Example 371]",4.52 to 5.52,> 7.00
"O=C(N[C@H]1C[C@@H]2C[C@@H]2C[C@H]2CC[C@@H](C(=O)N3CC(Oc4ncccn4)C3)N2C1=O)c1cc2cc(CP(=O)(O)O)ccc2s1 [Example 342, ((2-(((3S,6S,7aS,8aR,9aR)-5-oxo-3-(3-(pyrimidin-2-yloxy)azetidine-1-carbonyl)decahydro-1H-cyclopropa[d]pyrrolo[1,2-a]azocin-6-yl)carbamoyl)benzo[b]thiophen-5-yl)methyl)phosphonic acid]",< 4.52,5.00 to 6.00
"O=C(N[C@H]1C[C@H]2C[C@H]2C[C@H]2CC[C@@H](C(=O)N3CC(c4cccnc4)C3)N2C1=O)c1cc2cc([C@H](F)P(=O)(O)O)ccc2s1 [Compound 21, ((R)-fluoro(2-(((3S,6S,7aR,8aS,9aR)-5-oxo-3-(3-(pyridin-3-yl)azetidine-1-carbonyl)decahydro-1H-cyclopropa[d]pyrrolo[1,2-a]azocin-6-yl)carbamoyl)benzo[b]thiophen-5-yl)methyl)phosphonic acid]",4.52 to 5.52,> 7.00
